Measured values from patent US7615651B2, “Diaryl, dipyridinyl and aryl-pyridinyl derivatives and uses thereof” (Pfizer Inc., priority 2006, dated 2009).
Structures can show the parent of a compound that is named as a salt. Where two headings read alike, the source gives them in different places.

Legend:
[1] = cited from earlier work
[2] = bile duct ligated rats; cited from earlier work
[3] = system: TNF-α production; details: rats; cited from earlier work
[4] = humans; cited from earlier work
[5] = rodents; cited from earlier work
[6] = Spontaneous food intake model; format: in vivo, Sprague-Dawley rats; details: rats dosed before onset of dark cycle, compared with vehicle
Method: Male Sprague-Dawley rats may be obtained from Charles River Laboratories, Inc. (Wilmington, Mass.). The rats were individually housed and fed powdered chow. They were maintained on a 12 hour light/dark cycle and received food and water ad libitum. The animals were acclimated to the vivarium for a period of one week before testing is conducted. Rats were transferred to individual test cages 30 hours before the study. The rats were administered test compound or vehicle alone (no compound) 15-30 minutes prior to the onset of the dark cycle. The test compounds were dosed at ranges between 0.1 and 100 mg/kg depending upon the compound. The standard vehicle was 0.5% (w/v) methylcellulose or 30% β-cyclodextrin in water and the standard route of administration was oral. However, different vehicles and routes of administration are used to accommodate various compounds when required. Food intake was monitored using an automated Columbus Instruments system (Columbus, Ohio). Individual rat food intake was recorded continuously at 10-minute intervals, starting at the time of dosing, for a period of at least 12 hours. Compound efficacy was determined by comparing the food intake pattern of compound-treated rats to vehicle.

[7] = biological target: T1, opioid receptor mu (Homo sapiens, UniProt P35372); test: GTPγ[35S] binding assay, antagonism of endorphin; format: biochemical
T1 construct: expressed in transfected cells
Method in brief: (§1)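 Membranes with […] GTPγ[35S] in Tris pH 7.4 buffer with MgCl2, NaCl, 30 μM GDP; antagonist (10^−10–10^−5 M) preincubated 10 min at 30 °C, then challenged with BW-373U86 1 nM (delta), dynorphin-A 10 nM (kappa) or endorphin 1 μM (mu) for 1 h at 30 °C. Scintillation read-out; Ki derived.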

[8] = biological target: T2, opioid receptor kappa (Homo sapiens, UniProt P41145); test: GTPγ[35S] binding assay, antagonism of dynorphin-A; format: biochemical
T2 construct: expressed in transfected cells
Method in brief: as §1

[9] = biological target: T3, opioid receptor delta (Homo sapiens, UniProt P41143); test: GTPγ[35S] binding assay, antagonism of BW-373U86; format: biochemical
T3 construct: expressed in transfected cells
Method in brief: as §1

[10] = Fasted induced refeeding model; format: in vivo, Sprague-Dawley rats; details: rats after overnight fast, compared with vehicle
Method: The following screen is used to evaluate the efficacy of test compounds for inhibiting food intake in Sprague-Dawley rats after an overnight fast.
Male Sprague-Dawley rats were obtained from Charles River Laboratories, Inc. (Wilmington, Mass.). The rats are individually housed and fed powdered chow. They are maintained on a 12 hour light/dark cycle and received food and water ad libitum. The animals are acclimated to the vivarium for a period of one week before testing is conducted. Testing is completed during the light portion of the cycle.
To conduct the food intake efficacy screen, rats are transferred to individual test cages without food the afternoon prior to testing, and the rats are fasted overnight. After the overnight fast, rats are dosed the following morning with vehicle or test compounds. A known antagonist is dosed (3 mg/kg) as a positive control, and a control group receives vehicle alone (no compound). […] Individual rat food intake is recorded continuously at 10-minute intervals for a period of two hours. When required, food intake is recorded manually using an electronic scale; food is weighed every 30 minutes after food is provided up to four hours after food is provided. Compound efficacy is determined by comparing the food intake pattern of compound-treated rats to vehicle and the standard positive control.

[11] = biological target: mu opioid receptor (Homo sapiens, UniProt P35372); details: mu opioid receptor subtype; cited from earlier work
[12] = biological target: kappa opioid receptor (Homo sapiens, UniProt P41145); details: kappa opioid receptor subtype; cited from earlier work
[13] = biological target: delta opioid receptor (Homo sapiens, UniProt P41143); details: cited from earlier work
[14] = rat, in vivo; cited from earlier work
[15] = average Ki, antagonism of endorphin (1 μM) stimulated GTPγ[35S] binding, mu opioid receptor membranes, read-out: Mu functional (GTPγ[35S] binding Ki)
[16] = average Ki, antagonism of dynorphin-A (10 nM) stimulated GTPγ[35S] binding, kappa opioid receptor membranes, read-out: Kappa functional (GTPγ[35S] binding Ki)
[17] = average Ki, antagonism of BW-373U86 (1 nM) stimulated GTPγ[35S] binding, delta opioid receptor membranes, read-out: Delta functional (GTPγ[35S] binding Ki)
[18] = read-out: Mu functional (GTPγ[35S] binding Ki)
[19] = read-out: Kappa functional (GTPγ[35S] binding Ki)
[20] = read-out: Delta functional (GTPγ[35S] binding Ki)

T2 sequence (P41145 whole entry): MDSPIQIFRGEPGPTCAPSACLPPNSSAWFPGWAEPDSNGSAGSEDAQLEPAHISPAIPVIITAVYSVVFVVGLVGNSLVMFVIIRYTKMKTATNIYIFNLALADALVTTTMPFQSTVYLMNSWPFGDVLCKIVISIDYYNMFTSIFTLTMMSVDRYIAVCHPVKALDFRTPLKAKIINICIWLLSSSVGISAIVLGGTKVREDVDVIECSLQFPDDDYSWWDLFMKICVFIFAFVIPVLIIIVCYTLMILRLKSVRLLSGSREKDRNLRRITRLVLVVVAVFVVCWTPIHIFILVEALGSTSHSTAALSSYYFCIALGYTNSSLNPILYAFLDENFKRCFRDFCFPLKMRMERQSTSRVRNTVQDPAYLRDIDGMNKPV
T3 sequence (P41143 whole entry): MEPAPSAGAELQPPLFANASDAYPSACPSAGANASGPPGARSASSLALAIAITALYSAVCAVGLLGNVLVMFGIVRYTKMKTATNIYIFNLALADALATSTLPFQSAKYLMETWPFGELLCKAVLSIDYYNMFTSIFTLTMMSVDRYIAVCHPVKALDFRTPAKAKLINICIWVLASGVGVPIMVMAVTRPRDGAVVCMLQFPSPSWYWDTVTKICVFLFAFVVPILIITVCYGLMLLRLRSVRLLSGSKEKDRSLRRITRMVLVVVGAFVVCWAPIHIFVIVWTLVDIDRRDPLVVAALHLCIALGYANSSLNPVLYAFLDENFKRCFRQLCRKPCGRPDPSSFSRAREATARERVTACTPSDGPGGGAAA
T1 sequence (P35372 whole entry): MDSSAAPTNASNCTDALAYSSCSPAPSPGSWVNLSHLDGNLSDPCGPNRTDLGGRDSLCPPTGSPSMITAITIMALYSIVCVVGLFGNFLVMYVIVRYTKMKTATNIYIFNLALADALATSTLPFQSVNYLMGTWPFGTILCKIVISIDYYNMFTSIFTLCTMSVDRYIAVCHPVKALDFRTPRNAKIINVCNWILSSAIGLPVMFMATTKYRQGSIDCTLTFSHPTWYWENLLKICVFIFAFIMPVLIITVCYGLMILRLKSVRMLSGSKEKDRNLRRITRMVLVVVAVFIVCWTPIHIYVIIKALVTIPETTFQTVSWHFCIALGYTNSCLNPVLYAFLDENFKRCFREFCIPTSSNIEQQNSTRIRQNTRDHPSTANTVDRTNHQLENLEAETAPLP
kappa opioid receptor, sequence (P41145 whole entry): as the sequence (P41145 whole entry) above
delta opioid receptor, sequence (P41143 whole entry): as the sequence (P41143 whole entry) above
mu opioid receptor, sequence (P35372 whole entry): as the sequence (P35372 whole entry) above

| SMILES | Ki [7, 15] [nM] | Ki [8, 16] [nM] | Ki [9, 17] [nM] | food intake [6] | also measured |
| --- | --- | --- | --- | --- | --- |
| O=C1CC[C@@]2(O)[C@H]3Cc4ccc(O)c5c4[C@@]2(CCN3CC2CC2)[C@H]1O5 [Naltrexone] |  |  |  |  | insulin sensitivity ([1]; Polycystic Ovarian Syndrome (PCOS) women with hyperinsulinemia): improve insulin sensitivity; insulin sensitivity ([1]; post-menopausal women with hyperinsulinemia): improve insulin sensitivity; liver fibrosis [2]: attenuate liver fibrosis; LPS-stimulated TNF-α production [3]: inhibit LPS-stimulated TNF-α production; weight loss efficacy [4]: poor weight loss efficacy; weight loss efficacy [5]: poor weight loss efficacy |
| CC(C)CCNCc1ccc(-c2cccc(-c3nnc[nH]3)c2)c(F)c1.Cl [E7-02, [2-Fluoro-3′-(4H-[1,2,4]-triazol-3-yl)-biphenyl-4-ylmethyl]-(3-methyl-butyl)-amine hydrochloride salt] |  |  |  | significant reduction in food intake | Ki ([7]; read-out: Mu functional Ki (GTPγ[35S] binding)): 3.3 nM; Ki ([8]; read-out: Kappa functional Ki (GTPγ[35S] binding)): 5.9 nM; Ki ([9]; read-out: Delta functional Ki (GTPγ[35S] binding)): 1400 nM; food intake [10]: significant reduction in food intake |
| Cc1cc(C(N)=O)ccc1-c1ccc(CNCCC(C)C)cc1 [E4-01, 2-Methyl-4′-[(3-methyl-butylamino)-methyl]-biphenyl-4-carboxylic acid amide] | 6.5 | 2.4 | 20 | significant reduction in food intake |  |
| C[C@H]1CN(CCC(O)C2CCCCC2)CC[C@@]1(C)c1cccc(O)c1 (stereo partly drawn) [LY515300, 1-(3-cyclohexyl-3-hydroxypropyl)-3(R),4(R)-dimethyl-4-(3-hydroxyphenyl)piperidine] |  |  |  |  | binding affinity [11]: subnanomolar; binding affinity [12]: subnanomolar; binding affinity [13]: lower affinity |
| CC(C)CCNCc1ccc(-c2cc(C(N)=O)ccc2F)c(F)c1.Cl [1A-07] | 14.5 | 14.3 | 9.49 | significant reduction in food intake |  |
| Cc1cc(C(N)=O)ccc1-c1ccc(CNCCC(C)C)cc1F.Cl [1B-03] | 8.96 | 3.32 | 5.09 | significant reduction in food intake |  |
| Cc1cc(C(N)=O)c(F)cc1-c1ccc(CNCCC(C)C)c(F)c1.Cl.O (hydrate or solvate) |  |  |  |  | melting point: 229 °C |
| Cc1cc(C(N)=O)ccc1-c1ccc(CNCCC(C)C)c(Cl)c1 [E3-01, hydrochloride salt] |  |  |  | significant reduction in food intake | Ki [7, 18]: 2.82 nM; Ki [8, 19]: 1.73 nM; Ki [9, 20]: 1.53 nM |
| Cc1cc(C(N)=O)ccc1-c1cc(F)c(CNCCC(C)C)c(F)c1.Cl [E1-01, 3′,5′Difluoro-2-methyl-4′-[(3-methyl-butylamino)-methyl]-biphenyl-4-carboxylic acid amide hydrochloride salt] |  |  |  | significant reduction in food intake | Ki [7, 18]: 2.1 nM; Ki [8, 19]: 2.64 nM; Ki [9, 20]: 1.7 nM |
| C[C@H]1CN(CC[C@H](O)C2CCCCC2)CC[C@@]1(C)c1cccc(O)c1 [LY255582] |  |  |  |  | anorectic effects [14]: robust anorectic effects |
| Cc1cc(CNCCC(C)C)ccc1-c1ccc(C(N)=O)cc1C.Cl [E2-01, 2,2′-Dimethyl-4′-[(3-methyl-butylamino)-methyl]-biphenyl-4-carboxylic acid amide hydrochloride salt] |  |  |  | significant reduction in food intake | Ki [7, 18]: 0.886 nM; Ki [8, 19]: 2.06 nM; Ki [9, 20]: 1.38 nM |

The next lines start with results.

| Ki [7, 15] [nM] | Ki [8, 16] [nM] | Ki [9, 17] [nM] | SMILES | food intake [6] | also measured |
| --- | --- | --- | --- | --- | --- |
| 2.84 | 2.19 | 0.838 | Cc1cc(C(N)=O)ccc1-c1ccc(CNCCCc2ccccc2)cc1.Cl [4B-08] | significant reduction in food intake |  |
| 0.0925 | 0.406 | 0.185 | Cc1cc(C(N)=O)ccc1-c1ccc(CNC2Cc3ccccc3C2)cc1.Cl [4B-04] | significant reduction in food intake |  |
